Measured values: paper PMC11078746 (Nature, 2024)
Values joined by “and” are separate entries in the source; they are usually repeats but may differ in a detail not shown here. Equal values may be shown once.

What was measured:
EN = test: CFA 10-14 day clonogenic assay; assay type: cell-based; settings: Homo sapiens
LS513 = test: 4 day proliferation assay (CellTiter-Glo); settings: Homo sapiens, LS-513, 96 h, read-out: 4 day assay GI50
LS180 = test: CFA 10-14 day clonogenic assay; assay type: cell-based; settings: Homo sapiens
5495-HX xenograft = test: MSI xenograft model efficacy; assay type: in vivo, mouse; settings: colorectal carcinoma, 60 or 120 mg/kg
Method: (§1) All animal studies were conducted in accordance with ethics and procedures covered by permit BS-2275 and BS-1975 issued by the Kantonales Veterinäramt Basel-Stadt and in strict adherence to guidelines of the Eidgenössisches Tierschutzgesetz and the Eidgenössische Tierschutzverordnung, Switzerland. All animal studies were approved by the internal ethics committee. All animals had access to food and water ad libitum and were identified with transponders. They were housed in a specific-pathogen-free facility in IVC racks under a 12 h–12 h light–dark cycle. To establish cell-line-derived xenograft models, 6–7-week-old female athymic nude (Crl:NU(NCr)-Foxn1^nu) or SCID-BEIGE (CB17.Cg-PrkdcscidLystbg-J/Crl) mice from Charles River were engrafted subcutaneously with 5 million tumour cells in HBSS (H6648, Sigma-Aldrich). For SNU-407, Lovo, IM95, RL95.2, Ishikawa and IGROV-1, the cells were concentrated in 50% Matrigel (354234, Corning). Patient-derived xenografts were induced and expanded by transplantation as previously described. […] For the efficacy experiment, mice were randomized into groups (n = 5–6) for a mean tumour size of 100–150 mm^3. […] Blood samples were collected on day 7 and 91. […] Tumour responses are reported with the measures of tumour volumes from the treatment start. […] Animals were randomized (n = 3) and tumour samples were collected at 0, 1, 4, 8 and 24 h on the first day and then collected 4 h after the last treatment on day 3, 8, 10, 14 (including a 24 h timepoint), 17 and 21. Tumours were excised, weighed, either frozen in liquid nitrogen and cryogenic dry pulverized with the CryoPrep system (model CP-02, Covaris) or processed to FFPE after fixation. […] On day 12, blood samples were collected for PK analysis. On the last day (3 h after the last treatment), tumours were excised, weighed, frozen in liquid nitrogen and cryogenic dry pulverized for PD analysis.

HCT116 TP53 WT xenograft = test: MSI xenograft model efficacy; assay type: in vivo, mouse; settings: for Mean TVol / Tumour volume (TVol): HCT116 WT, 60 mpk; for Tumour volume (TVol): single mouse, 60 mg/kg
Method: as §1

5441-HX xenograft = test: MSI xenograft model efficacy; assay type: in vivo, mouse; settings: colorectal carcinoma, 60 or 120 mg/kg
Method: as §1

LIM2405 xenograft = test: MSI xenograft model efficacy; assay type: in vivo, mouse; settings: LIM2405, colorectal carcinoma; 60 or 120 mg/kg
Method: as §1

JHUEM1 = test: 4 day proliferation assay (CellTiter-Glo); settings: Homo sapiens, 96 h, read-out: 4 day assay GI50
MSI cancer cells = test: Clonogenic assay, 10-to-14-day; assay type: cell-based; settings: Homo sapiens, 10-to-14-day clonogenic assay
JHUEM2 = test: 4 day proliferation assay (CellTiter-Glo); settings: Homo sapiens, 96 h, read-out: 4 day assay GI50
RKO = test: 4 day proliferation assay (CellTiter-Glo); settings: Homo sapiens, 96 h, read-out: 4 day assay GI50
HCT116 cells = settings: after HRO761 treatment
Method: Membranes were incubated overnight with the primary antibodies and for 1 h with the secondary antibodies. Washing steps were performed with 1× PBS containing 0.01% Tween-20. […] We performed the immunoblots three times except for blots shown in Figs. 2e and 4c and Extended Data Figs. 6b and 8f, which were performed twice. […] Uncropped and unprocessed scans of all blots are available as a Supplementary Figs. 1 (main text figures, which contain Figs. 2d,e, 3a,g and 4c) and 2 (Extended Data Figs. 1d,h,i, 3b–e,h,i, 5, 6a,b, 7c, 8b,g) in the Supplementary Information.

SW48 = test: cells; settings: Homo sapiens, SW48, read-out: CFA 10-14 day assay GI50

`CCc1c(N2CCN(C(=O)c3ncnc(C)c3O)CC2)c(=O)n2nc(C3=CCOCC3)nc2n1CC(=O)Nc1ccc(C(F)(F)F)cc1Cl` [HRO761] showed a GI50 (EN) of at least 10000 nM, a GI50 (LS513) of at least 10000 nM and a GI50 (LS180) of 131 nM. The Best average response (5495-HX xenograft) was -50, the Best average response (HCT116 TP53 WT xenograft; HCT116 P53 WT, colorectal carcinoma, 60 or 120 mg/kg) was -60 and the “Mean TVol” value (HCT116 TP53 WT xenograft; day 0) was 219.01 mm3. The “Tumour volume (TVol)” value (HCT116 TP53 WT xenograft; day 0 post 1st dose) was 93.52 mm3 and 234.39 mm3 and 157.76 mm3 and 320.89 mm3 and 161.54 mm3 and 345.97 mm3, the “Mean TVol” value (HCT116 TP53 WT xenograft; day 3) was 281.33 mm3 and the “Tumour volume (TVol)” value (HCT116 TP53 WT xenograft; day 3) was 104.72 mm3 and 379.81 mm3 and 232.95 mm3 and 368.27 mm3 and 173.78 mm3 and 428.47 mm3. For the same molecule, the “Mean TVol” value (HCT116 TP53 WT xenograft; day 7) was 242.31 mm3, the “Tumour volume (TVol)” value (HCT116 TP53 WT xenograft; day 7) was 103.44 mm3 and 369.23 mm3 and 158.31 mm3 and 312.72 mm3 and the “Mean TVol” value (HCT116 TP53 WT xenograft; day 10) was 237.77 mm3. The “Mean TVol” value (HCT116 TP53 WT xenograft; day 14) was 208.41 mm3, the “Tumour volume (TVol)” value (HCT116 TP53 WT xenograft; day 14) was 70.08 mm3 and 324.15 mm3 and 133.86 mm3 and 295.48 mm3 and 98.69 mm3 and 328.18 mm3 and the “Mean TVol” value (HCT116 TP53 WT xenograft; day 17) was 206.85 mm3. The “Tumour volume (TVol)” value (HCT116 TP53 WT xenograft; day 17) was 71.54 mm3 and 333.55 mm3 and 123.78 mm3 and 277.24 mm3 and 67.49 mm3 and 367.52 mm3, the “Mean TVol” value (HCT116 TP53 WT xenograft; day 21) was 182.16 mm3 and the “Tumour volume (TVol)” value (HCT116 TP53 WT xenograft; day 21) was 68.28 mm3 and 318.05 mm3 and 133.60 mm3 and 239.83 mm3 and 55.74 mm3 and 277.43 mm3. For the same molecule, the “Mean TVol” value (HCT116 TP53 WT xenograft; day 24) was 152.12 mm3, the “Tumour volume (TVol)” value (HCT116 TP53 WT xenograft; day 24) was 51.97 mm3 and 322.25 mm3 and 104.45 mm3 and 220.64 mm3 and 35.09 mm3 and 178.30 mm3 and the “Mean TVol” value (HCT116 TP53 WT xenograft; day 29) was 108.49 mm3. The “Tumour volume (TVol)” value (HCT116 TP53 WT xenograft; day 29) was 53.97 mm3 and 224.74 mm3 and 66.70 mm3 and 182.17 mm3 and 28.07 mm3 and 95.29 mm3, the “Mean TVol” value (HCT116 TP53 WT xenograft; day 31) was 115.60 mm3 and the “Tumour volume (TVol)” value (HCT116 TP53 WT xenograft; day 31) was 67.20 mm3 and 248.87 mm3 and 79.67 mm3 and 165.88 mm3 and 35.96 mm3 and 96.04 mm3. For the same molecule, the “Mean TVol” value (HCT116 TP53 WT xenograft; day 35) was 82.07 mm3, the “Tumour volume (TVol)” value (HCT116 TP53 WT xenograft; day 35) was 74.11 mm3 and 171.12 mm3 and 62.35 mm3 and 120.74 mm3 and 20.08 mm3 and 43.99 mm3 and the “Mean TVol” value (HCT116 TP53 WT xenograft; day 38) was 85.39 mm3. For the same molecule, the “Tumour volume (TVol)” value (HCT116 TP53 WT xenograft; day 38) was 95.75 mm3 and 187.18 mm3 and 54.75 mm3 and 135.21 mm3 and 15.88 mm3 and 23.55 mm3, the “Mean TVol” value (HCT116 TP53 WT xenograft; day 42) was 74.87 mm3 and the “Tumour volume (TVol)” value (HCT116 TP53 WT xenograft; day 42) was 111.35 mm3 and 127.20 mm3 and 44.64 mm3 and 140.38 mm3 and 12.27 mm3 and 13.40 mm3. The “Mean TVol” value (HCT116 TP53 WT xenograft; day 45) was 100.30 mm3, the “Tumour volume (TVol)” value (HCT116 TP53 WT xenograft; day 45) was 197.14 mm3 and 123.97 mm3 and 48.50 mm3 and 218.58 mm3 and 10.09 mm3 and 3.53 mm3 and the “Mean TVol” value (HCT116 TP53 WT xenograft; day 49) was 121.82 mm3. For the same molecule, the “Tumour volume (TVol)” value (HCT116 TP53 WT xenograft; day 49) was 316.70 mm3 and 100.63 mm3 and 72.22 mm3 and 229.46 mm3 and 10.59 mm3 and 1.31 mm3, the “Mean TVol” value (HCT116 TP53 WT xenograft; day 53) was 194.25 mm3 and the “Tumour volume (TVol)” value (HCT116 TP53 WT xenograft; day 53) was 483.74 mm3 and 180.66 mm3 and 93.29 mm3 and 393.80 mm3 and 13.76 mm3 and 0.25 mm3. The “Mean TVol” value (HCT116 TP53 WT xenograft; day 56) was 269.54 mm3, the “Tumour volume (TVol)” value (HCT116 TP53 WT xenograft; day 56) was 671.24 mm3 and 160.85 mm3 and 148.76 mm3 and 618.00 mm3 and 18.36 mm3 and 0.00 mm3 and the “Mean TVol” value (HCT116 TP53 WT xenograft; day 60) was 408.84 mm3. The “Tumour volume (TVol)” value (HCT116 TP53 WT xenograft; day 60) was 1070.44 mm3 and 236.23 mm3 and 249.04 mm3 and 872.91 mm3 and 24.42 mm3 and 0.00 mm3, the Best average response (5441-HX xenograft) was 7 and the Best average response (LIM2405 xenograft) was 44. For the same molecule, the GI50 (JHUEM1) was 946 nM, the GI50 (MSI cancer cells) was 50 to 1000 nM and the GI50 (JHUEM2) was at least 10000 nM. For the same molecule, the GI50 (RKO) was 2910 nM, the “start of WRN degradation” value (HCT116 cells) was 8 h and the GI50 (SW48) was 31 nM.
